In patent US20240390340A1 (INCYTE CORPORATION, priority 2023, published 2024):

Key:
KRAS G12V = KRAS G12V (Homo sapiens, UniProt P01116, G12V); assay: GDP-GTP exchange assay (bodipy-GDP/GppNHp, SOS1), KRAS G12V; type: biochemical; conditions: KRAS G12V mutant; value for the most potent isomer quoted for certain compounds; read-out: G12V (KRAS G12V exchange assay IC50)
Protocol: (§1) The inhibitor potency of the exemplified compounds was determined in a fluorescence based guanine nucleotide exchange assay, which measures the exchange of bodipy-GDP (fluorescently labeled GOP) for GppNHp (Non-hydrolyzable GTP analog) to generate the active state of KRAS in the presence of SOS1 (guanine nucleotide exchange factor). Inhibitors were serially diluted in DMSO and a volume of 0.1 μL was transferred to the wells of a black low volume 384-well plate. 5 μL/well volume of bodipy-loaded KRAS G12D diluted to 2.5 nM in assay buffer (25 mM Hepes pH 7.5, 50 mM NaCl, 10 mM MgCl2 and 0.01% Brij-35) was added to the plate and pre-incubated with inhibitor for 4 h at r.t. Appropriate controls (enzyme with no inhibitor or with a G12D inhibitor) were included on the plate. The exchange was initiated by the addition of a 5 μL/well volume containing 1 mM GppNHp and 300 nM SOS1 in assay buffer. The 10 μL/well reaction concentration of the bodipy-loaded KRAS G12D, GppNHp, and SOS1 were 2.5 nM, 500 μM, and 150 nM, respectively. The reaction plates were incubated at r.t. for 2 h, a time estimated for complete GDP-GTP exchange in the absence of inhibitor. For the KRAS G12V mutant, similar guanine nucleotide exchange assays were used with 2.5 nM as final concentration for the bodipy loaded KRAS proteins and 3 h incubation after adding GppNHp-SOS1 mixture. A cyclic peptide described to selectively bind G12D mutant (Sakamoto et al., BBRC 484.3 (2017), 605-611) or internal compounds with confirmed binding were used as positive controls in the assay plates. Fluorescence intensities were measured on a PheraStar plate reader instrument (BMG Labtech) with excitation at 485 nm and emission at 520 nm.
(§2) Either GraphPad prism or Genedata Screener SmartFit was used to analyze the data. The IC50 values were derived by fitting the data to a four parameter logistic equation producing a sigmoidal dose-response curve with a variable Hill coefficient.
(§3) The symbol “†” indicates IC50≤100 nM, “††” indicates IC50>100 nM but ≤1 μM; and “†††” indicates IC50 is >1 μM but ≤5 μM, “††††” indicates IC50 is >5 μM but ≤10 μM. “NA” indicates IC50 not available.

KRAS G12D = KRAS G12D (Homo sapiens, UniProt P01116, G12D); assay: GDP-GTP exchange assay (bodipy-GDP/GppNHp, SOS1), KRAS G12D; type: biochemical; conditions: bodipy-loaded KRAS G12D 2.5 nM, 4 h pre-incubation; value for the most potent isomer quoted for certain compounds; read-out: G12D (KRAS G12D exchange assay IC50)
Protocol: as §1, §2, §3

KRAS G12V, sequence (P01116 1-188 isoform P01116-2 G12V): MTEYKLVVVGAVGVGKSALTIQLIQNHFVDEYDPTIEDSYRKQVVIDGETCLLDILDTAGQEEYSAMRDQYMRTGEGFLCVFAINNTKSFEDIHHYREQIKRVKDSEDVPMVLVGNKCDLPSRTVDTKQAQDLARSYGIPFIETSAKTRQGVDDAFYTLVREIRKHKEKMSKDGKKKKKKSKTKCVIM
KRAS G12D, sequence (P01116 1-188 isoform P01116-2 G12D): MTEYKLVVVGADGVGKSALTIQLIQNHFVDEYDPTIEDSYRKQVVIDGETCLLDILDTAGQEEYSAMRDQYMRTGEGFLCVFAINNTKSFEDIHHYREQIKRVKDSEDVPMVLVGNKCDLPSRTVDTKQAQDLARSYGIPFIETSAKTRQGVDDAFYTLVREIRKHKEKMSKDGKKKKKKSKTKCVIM

## Cc1csc(CO[C@H]2C[C@H](c3cc4c(C)nc5c(F)c(-c6cccc(Cl)c6Cl)c(CCC#N)cc5c4n3[C@H]3[C@H]4CN[C@@H]3C4)N(C(=O)C3CC3)C2)n1 [Example 359]
KRAS G12V
  IC50: ≤ 100 nM
KRAS G12D
  IC50: ≤ 100 nM

## Cc1nc2c(F)c(-c3cccc(Cl)c3Cl)c(CCC#N)cc2c2c1cc([C@H]1C[C@H](Oc3cccnc3)CN1C(=O)C1CC1)n2[C@H]1[C@H]2CN[C@@H]1C2 [Example 114]
KRAS G12V
  IC50: ≤ 100 nM
KRAS G12D
  IC50: ≤ 100 nM

## COC(=O)N1C[C@@H](Oc2ccccn2)C[C@@H]1c1cc2c(-c3ccc(CN(C)C)c(F)c3F)nc3c(F)c(-c4cccc(Cl)c4Cl)c(CCC#N)cc3c2n1[C@H]1[C@H]2CN[C@@H]1C2 [Example 148]
KRAS G12V
  IC50: ≤ 100 nM
KRAS G12D
  IC50: ≤ 100 nM

## Cc1nc2c(F)c(-c3cccc(Cl)c3Cl)c(CCC#N)cc2c2c1cc([C@H]1C[C@H](OCc3c(Cl)cccc3Cl)CN1C(=O)C1CC1)n2[C@H]1[C@H]2CN[C@@H]1C2 [Example 116]
KRAS G12V
  IC50: ≤ 100 nM
KRAS G12D
  IC50: ≤ 100 nM

## Cc1nc2c(F)c(-c3cccc(Cl)c3Cl)c(CCC#N)cc2c2c1cc([C@H]1C[C@H](Oc3cccnc3N)CN1C(=O)C1CC1)n2[C@H]1[C@H]2CN[C@@H]1C2 [Example 288]
KRAS G12V
  IC50: ≤ 100 nM
KRAS G12D
  IC50: ≤ 100 nM

## CNC(=O)c1ccc(-c2nc3c(F)c(-c4cccc(Cl)c4Cl)c(CCC#N)cc3c3c2cc([C@H]2C[C@H](OCc4c(F)cccc4F)CN2C(=O)C2CC2)n3[C@H]2[C@H]3CN[C@@H]2C3)cn1 [Example 220]
KRAS G12V
  IC50: ≤ 100 nM
KRAS G12D
  IC50: ≤ 100 nM

## Cc1nc2c(F)c(-c3cccc(Cl)c3Cl)c(CCC#N)cc2c2c1cc([C@H]1C[C@H](OCc3ccncc3)CN1C(=O)C1CC1)n2[C@H]1[C@H]2CN[C@@H]1C2 [Example 96]
KRAS G12V
  IC50: ≤ 100 nM
KRAS G12D
  IC50: ≤ 100 nM

## Cc1nc2c(F)c(-c3cccc(Cl)c3Cl)c(CCC#N)cc2c2c1cc([C@H]1C[C@H](Oc3ccc4ccccc4n3)CN1C(=O)C1CC1)n2[C@H]1[C@H]2CN[C@@H]1C2 [Example 121]
KRAS G12V
  IC50: ≤ 100 nM
KRAS G12D
  IC50: ≤ 100 nM

## Cc1nc2c(F)c(-c3cccc(Cl)c3Cl)c(CCC#N)cc2c2c1cc([C@H]1C[C@H](OCc3cccc(F)c3C#N)CN1C(=O)C1CC1)n2[C@H]1[C@H]2CN[C@@H]1C2 [Example 156]
KRAS G12V
  IC50: ≤ 100 nM
KRAS G12D
  IC50: ≤ 100 nM

## Cc1nc2c(F)c(-c3cccc(Cl)c3Cl)c(CCC#N)cc2c2c1cc([C@H]1C[C@H](n3cc(C4CNC(=O)C4)nn3)CN1C(=O)C1CC1)n2[C@H]1[C@H]2CN[C@@H]1C2 (some centres unmarked) [Example 273]
KRAS G12V
  IC50: ≤ 100 nM
KRAS G12D
  IC50: ≤ 100 nM

## COc1ccc(F)c(CO[C@H]2C[C@H](c3cc4c(C)nc5c(F)c(-c6cccc(Cl)c6Cl)c(CCC#N)cc5c4n3[C@H]3[C@H]4CN[C@@H]3C4)N(C(=O)C3CC3)C2)c1F [Example 186]
KRAS G12V
  IC50: ≤ 100 nM
KRAS G12D
  IC50: ≤ 100 nM

## Cc1nc2c(F)c(-c3cccc(Cl)c3Cl)c(CCC#N)cc2c2c1cc([C@H]1C[C@H](OCc3cnco3)CN1C(=O)C1CC1)n2[C@H]1[C@H]2CN[C@@H]1C2 [Example 258]
KRAS G12V
  IC50: ≤ 100 nM
KRAS G12D
  IC50: ≤ 100 nM

## Cc1c(O[C@H]2C[C@H](c3cc4c(C)nc5c(F)c(-c6cccc(Cl)c6Cl)c(CCC#N)cc5c4n3[C@H]3[C@H]4CN[C@@H]3C4)N(C(=O)C3CC3)C2)ccnc1Cl [Example 295]
KRAS G12V
  IC50: ≤ 100 nM
KRAS G12D
  IC50: ≤ 100 nM

## Cc1nc2c(F)c(-c3cccc(Cl)c3Cl)c(CCC#N)cc2c2c1cc([C@H]1C[C@H](n3cc(C(F)(F)F)nn3)CN1C(=O)C1CC1)n2[C@H]1[C@H]2CN[C@@H]1C2 [Example 414]
KRAS G12V
  IC50: ≤ 100 nM
KRAS G12D
  IC50: ≤ 100 nM

## Cc1nc2c(F)c(-c3cccc(Cl)c3Cl)c(CCC#N)cc2c2c1cc([C@H]1C[C@H](OCc3cnsc3)CN1C(=O)C1CC1)n2[C@H]1[C@H]2CN[C@@H]1C2 [Example 110]
KRAS G12V
  IC50: ≤ 100 nM
KRAS G12D
  IC50: ≤ 100 nM

## Cc1nc2c(F)c(-c3cccc(Cl)c3Cl)c(CCC#N)cc2c2c1cc([C@H]1C[C@H](OCC3(C#N)CCC3)CN1C(=O)C1CC1)n2[C@H]1[C@H]2CN[C@@H]1C2 [Example 339]
KRAS G12V
  IC50: ≤ 100 nM
KRAS G12D
  IC50: ≤ 100 nM
